Experimental data published in US20070128217A1 (priority 2003, published 2007).

Legend:
[1] = system: control sera (pooled serum of ten healthy LUMC hospital workers; commercial negative donor pooled serum from the Dutch bloodbank); assay type: binding, human; parameters: Binding of Control serum LUMC to linear peptides / Binding of Control serum Blood-bank to linear peptides / Binding of Control serum LUMC to looped peptides / Binding of Control Serum Blood-Bank to Looped peptides / Binding of Control serum LUMC to linear peptides of the protein M of SARS-CoV Urbani / Binding of Control serum Blood-bank to linear peptides of the protein M of SARS-CoV Urbani / Binding of Control serum LUMC to looped peptides of the protein M of SARS-CoV Urbani / Binding of Control Serum Blood-Bank to Looped peptides of the protein M of SARS-CoV Urbani: unit not given here
[2] = system: rabbit serum obtained by immunizing a rabbit with the SARS-CoV strain Frankfurt 1; assay type: binding; parameters: Binding of a rabbit serum to linear peptides / Binding of a rabbit serum to looped peptides / Rabbit serum linear peptides / Rabbit serum looped peptides / Binding of a rabbit serum to linear peptides of protein N of SARS-CoV Urbani (Rabbit serum linear peptides) / Binding of a rabbit serum to looped/cyclic peptides of protein N of SARS-CoV Urbani (Rabbit serum looped peptides): unit not given here
[3] = system: antibodies in sera from SARS patients (sera 1a, 1b, 2, 6, 37, 62, London, SARS-yellow, SARS-green); assay type: binding, human; parameters: Binding of serum 6 to linear peptides of protein X1 of SARS-CoV Urbani / Binding of serum 37 to linear peptides of protein X1 of SARS-CoV Urbani / Binding of serum 6 to looped/cyclic peptide (PEPSCAN-ELISA) / Binding of serum 37 to looped/cyclic peptide (PEPSCAN-ELISA) / Binding of serum 37 to looped/cyclic peptides of protein X1 of SARS-CoV Urbani / Binding of serum 6 to linear peptides of protein X2 / Binding of serum 37 to linear peptides of protein X2 / Binding of serum 37 to looped/cyclic peptides of protein X2 of SARS-CoV Urbani / Binding of serum 6 to linear peptides of protein M of SARS-CoV Urbani / Binding of serum 37 to linear peptides of protein M of SARS-CoV Urbani / Binding of serum 6 to looped/cyclic peptides of protein M of SARS-CoV Urbani / Binding of serum 37 to looped/cyclic peptides of protein M of SARS-CoV Urbani / Binding of serum 6 to linear peptides of protein X3 of SARS-CoV Urbani / Binding of serum 37 to linear peptides of protein X3 of SARS-CoV Urbani / Binding of serum 37 to looped/cyclic peptides of protein X3 of SARS-CoV Urbani / Binding of serum 6 to linear peptides of protein X4 of SARS-CoV Urbani / Binding of serum 37 to linear peptides of protein X4 of SARS-CoV Urbani / Binding of serum 37 to looped/cyclic peptides of protein X4 of SARS-CoV Urbani / Binding of serum 6 to linear peptides of protein X5 of SARS-CoV Urbani / Binding of serum 37 to linear peptides of protein X5 of SARS-CoV Urbani / Binding of serum 37 to looped/cyclic peptides of protein X5 of SARS-CoV Urbani / Binding of serum 6 to linear peptides of protein N of SARS-CoV Urbani / Binding of serum 37 to linear peptides of protein N of SARS-CoV Urbani / Binding of serum 6 to linear peptide (PEPSCAN-ELISA) / Binding of serum 1a to looped/cyclic peptides of protein N of SARS-CoV Urbani / Binding of serum 1b to looped/cyclic peptides of protein N of SARS-CoV Urbani / Binding of serum 2 to looped/cyclic peptides of protein N of SARS-CoV Urbani / Binding of serum 6 to looped/cyclic peptides of protein N of SARS-CoV Urbani / Binding of serum 37 to looped/cyclic peptides of protein N of SARS-CoV Urbani / Binding of serum 62 to looped/cyclic peptides of protein N of SARS-CoV Urbani / Binding of serum London to looped/cyclic peptides of protein N of SARS-CoV Urbani / Binding of serum SARS-green to looped/cyclic peptides of protein N of SARS-CoV Urbani: unit not given here

For ATSRTLSYYKLGASQ, the “Binding of Control Serum Blood-Bank to Looped peptides of the protein M of SARS-CoV Urbani” value [1] was 0.6, the “Binding of Control serum Blood-bank to linear peptides of the protein M of SARS-CoV Urbani” value [1] was 0.7 and the “Binding of Control serum LUMC to linear peptides of the protein M of SARS-CoV Urbani” value [1] was 0.3. For the same sequence, the “Binding of Control serum LUMC to looped peptides of the protein M of SARS-CoV Urbani” value [1] was 0.6, the “Rabbit serum linear peptides” value [2] was 0.6 and the “Rabbit serum looped peptides” value [2] was 0.4. The “Binding of serum 1a to linear peptides of protein M of SARS-CoV Urbani” value [3] was 0.7, the “Binding of serum 1a to looped/cyclic peptides of protein M of SARS-CoV Urbani” value [3] was 0.8 and the “Binding of serum 1b to linear peptides of protein M of SARS-CoV Urbani” value [3] was 0.5. The “Binding of serum 1b to looped/cyclic peptides of protein M of SARS-CoV Urbani” value [3] was 0.2, the “Binding of serum 2 to linear peptides of protein M of SARS-CoV Urbani” value [3] was 0.7 and the “Binding of serum 2 to looped/cyclic peptides of protein M of SARS-CoV Urbani” value [3] was 0.6. The “Binding of serum 6 to linear peptides of protein M of SARS-CoV Urbani” value [3] was 0.3, the “Binding of serum 6 to looped/cyclic peptides of protein M of SARS-CoV Urbani” value [3] was 0.8 and the “Binding of serum 37 to linear peptides of protein M of SARS-CoV Urbani” value [3] was 0.8. For the same sequence, the “Binding of serum 37 to looped/cyclic peptides of protein M of SARS-CoV Urbani” value [3] was 0.6, the “Binding of serum 62 to linear peptides of protein M of SARS-CoV Urbani” value [3] was 0.7 and the “Binding of serum 62 to looped/cyclic peptides of protein M of SARS-CoV Urbani” value [3] was 0.5. The “Binding of serum London to linear peptides of protein M of SARS-CoV Urbani” value [3] was 0.3, the “Binding of serum London to looped/cyclic peptides of protein M of SARS-CoV Urbani” value [3] was 0.3 and the “Binding of serum SARS-green to linear peptides of protein M of SARS-CoV Urbani” value [3] was 0.2. The “Binding of serum SARS-green to looped/cyclic peptides of protein M of SARS-CoV Urbani” value [3] was 0.3, the “Binding of serum SARS-yellow to linear peptides of protein M of SARS-CoV Urbani” value [3] was 0.1 and the “Binding of serum SARS-yellow to looped/cyclic peptides of protein M of SARS-CoV Urbani” value [3] was 0.7.

For CLCKHKKVSTNLCTH, the “Binding of Control Serum Blood-Bank to Looped peptides” value [1] was 0.4, the “Binding of Control serum Blood-bank to linear peptides” value [1] was 1.0 and the “Binding of Control serum LUMC to linear peptides” value [1] was 0.9. For the same sequence, the “Binding of Control serum LUMC to looped peptides” value [1] was 0.3, the “Binding of a rabbit serum to linear peptides” value [2] was 0.4 and the “Binding of a rabbit serum to looped peptides” value [2] was 0.4. For the same sequence, the “Binding of serum 1a to looped/cyclic peptides of protein X2 of SARS-CoV Urbani” value [3] was 0.3, the “Binding of serum 1b to looped/cyclic peptides of protein X2 of SARS-CoV Urbani” value [3] was 0.3 and the “Binding of serum 2 to looped/cyclic peptides of protein X2 of SARS-CoV Urbani” value [3] was 0.3. For the same sequence, the “Binding of serum 6 to looped/cyclic peptides of protein X2 of SARS-CoV Urbani” value [3] was 0.3, the “Binding of serum 37 to looped/cyclic peptides of protein X2 of SARS-CoV Urbani” value [3] was 0.4 and the “Binding of serum 62 to looped/cyclic peptides of protein X2 of SARS-CoV Urbani” value [3] was 0.5. The “Binding of serum London to looped/cyclic peptides of protein X2 of SARS-CoV Urbani” value [3] was 0.2, the “Binding of serum SARS-green to looped/cyclic peptides of protein X2 of SARS-CoV Urbani” value [3] was 0.3 and the “Binding of serum SARS-yellow to looped/cyclic peptides of protein X2 of SARS-CoV Urbani” value [3] was 0.4. The “Recognition of the peptide by sera of SARS-CoV infected individuals, and form (linear, looped/cyclic) in which it is recognized” value [3] was “recognized in linear form”.

For TTSLSLHKLLQTLVL, the “Binding of Control Serum Blood-Bank to Looped peptides” value [1] was 0.6, the “Binding of Control serum Blood-bank to linear peptides” value [1] was 0.6 and the “Binding of Control serum LUMC to linear peptides” value [1] was 0.4. For the same sequence, the “Binding of Control serum LUMC to looped peptides” value [1] was 0.6, the “Binding of a rabbit serum to linear peptides” value [2] was 0.1 and the “Binding of a rabbit serum to looped peptides” value [2] was 0.4. For the same sequence, the “Binding of serum 1a to linear peptides of protein X2” value [3] was 0.5, the “Binding of serum 1a to looped/cyclic peptides of protein X2 of SARS-CoV Urbani” value [3] was 0.5 and the “Binding of serum 1b to linear peptides of protein X2” value [3] was 0.5. For the same sequence, the “Binding of serum 1b to looped/cyclic peptides of protein X2 of SARS-CoV Urbani” value [3] was 0.4, the “Binding of serum 2 to linear peptides of protein X2” value [3] was 0.3 and the “Binding of serum 2 to looped/cyclic peptides of protein X2 of SARS-CoV Urbani” value [3] was 0.4. The “Binding of serum 6 to linear peptides of protein X2” value [3] was 0.5, the “Binding of serum 6 to looped/cyclic peptides of protein X2 of SARS-CoV Urbani” value [3] was 0.5 and the “Binding of serum 37 to linear peptides of protein X2” value [3] was 0.5. The “Binding of serum 37 to looped/cyclic peptides of protein X2 of SARS-CoV Urbani” value [3] was 0.5, the “Binding of serum 62 to linear peptides of protein X2” value [3] was 0.5 and the “Binding of serum 62 to looped/cyclic peptides of protein X2 of SARS-CoV Urbani” value [3] was 0.6. For the same sequence, the “Binding of serum London to linear peptides of protein X2” value [3] was 0.5, the “Binding of serum London to looped/cyclic peptides of protein X2 of SARS-CoV Urbani” value [3] was 1.3 and the “Binding of serum SARS-green to linear peptides of protein X2” value [3] was 0.6. The “Binding of serum SARS-green to looped/cyclic peptides of protein X2 of SARS-CoV Urbani” value [3] was 0.3, the “Binding of serum SARS-yellow to linear peptides of protein X2” value [3] was 0.3 and the “Binding of serum SARS-yellow to looped/cyclic peptides of protein X2 of SARS-CoV Urbani” value [3] was 0.5.
